Source: patent EP0370656A1, “Treatment of myelosuppression associated with acquired immune deficiency” (SCHERING CORPORATION, priority 1988, dated 1990)
Read-outs that look alike come from different tables or passages of the source.

What was measured:
[1] = system: white blood cell (WBC) count; conditions: for WBC (per cm³): GM-CSF 0 µg/kg
Description: A person was diagnosed as having AIDS and CMV retinitis. […]

[2] = system: cytomegalovirus retinitis; conditions: intravenous, 7.5 to 15 mg per kilogram per day; patients with cytomegalovirus retinitis; cited from earlier work

## Nc1nc(O)c2ncn(COC(CO)CO)c2n1 [DHPG, 9-(1,3-dihydroxy-2-propoxymethyl) guanine]
[1]; Example 1, person, Day 0, % dose of DHPG changed to 50
  WBC (per cm³): 1000 per cm³
[1]; Example 1, DHPG commenced at Day 0
  result of DHPG treatment (adverse effect): life threatening myelosuppression
[1]; Example 1, Day 29, % dose of DHPG changed to 50
  WBC (per cm³): 700 per cm³
[1]; Example 1, Day 34, % dose of DHPG changed to 0
  WBC (per cm³): 300 per cm³
[1]; Example 1, Day 49 (DHPG at 0 % since Day 34), % dose of DHPG changed to 100
  WBC (per cm³): 1900 per cm³
[1]; Example 1, Day 52, % dose of DHPG changed to 50
  WBC (per cm³): 700 per cm³
[2]
  major adverse effect of DHPG therapy: dose related myelosuppression, especially neutropenia
